Assay results: the NIST ThermoML archive (doi:10.1021/je3009073)

Experiment: xn = mol fraction of the nth substance listed
Settings: 101 kPa, Liquid; for viscosity: Capillary tube (Ostwald / Ubbelohde) method; for mass density: Pycnometric method

CC(O)C(=O)[O-].CN(C)C(N)=[N+](C)C [1,1,3,3-tetramethylguanidinium lactate] + O
Settings	mass density [kg/m3]	viscosity [mPa·s]
303.15 K, x2 = 0	1123.5	13684
303.15 K, x2 = 0.1001	1124	7665.3
303.15 K, x2 = 0.2165	1124.3	3594.1
303.15 K, x2 = 0.3182	1124.7	1926
303.15 K, x2 = 0.409	1124.9	1128.2
303.15 K, x2 = 0.5036	1124.5	554.56
303.15 K, x2 = 0.6044	1122.8	253.27
303.15 K, x2 = 0.7034	1119.9	104.72
303.15 K, x2 = 0.8113	1111.2	32.59
303.15 K, x2 = 0.9017	1088.3	8.68
303.15 K, x2 = 0.95	1058.1	3.32
308.15 K, x2 = 0	1120.9	7295.9
308.15 K, x2 = 0.1001	1121.2	4186.3
308.15 K, x2 = 0.2165	1121.5	2150.1
308.15 K, x2 = 0.3182	1121.9	1141.9
308.15 K, x2 = 0.409	1122.1	698
308.15 K, x2 = 0.5036	1121.3	352.18
308.15 K, x2 = 0.6044	1119.7	175.49
308.15 K, x2 = 0.7034	1116.7	74.98
308.15 K, x2 = 0.8113	1107.9	25.05
308.15 K, x2 = 0.9017	1084.9	7.1
308.15 K, x2 = 0.95	1055	2.83
313.15 K, x2 = 0	1117.6	3961.9
313.15 K, x2 = 0.1001	1117.9	2412.1
313.15 K, x2 = 0.2165	1118.1	1263.3
313.15 K, x2 = 0.3182	1118.4	718.88
313.15 K, x2 = 0.409	1118.5	429.45
313.15 K, x2 = 0.5036	1117.6	235.35
313.15 K, x2 = 0.6044	1116.1	122.11
313.15 K, x2 = 0.7034	1113.1	55.39
313.15 K, x2 = 0.8113	1104.2	19.16
313.15 K, x2 = 0.9017	1081.5	5.87
313.15 K, x2 = 0.95	1051.5	2.41
318.15 K, x2 = 0	1114.3	2264.3
318.15 K, x2 = 0.1001	1114.5	1261.7
318.15 K, x2 = 0.2165	1114.6	797.81
318.15 K, x2 = 0.3182	1114.9	458.45
318.15 K, x2 = 0.409	1114.9	289.6
318.15 K, x2 = 0.5036	1114.1	167.33
318.15 K, x2 = 0.6044	1112.6	89.04
318.15 K, x2 = 0.7034	1109.6	42
318.15 K, x2 = 0.8113	1100.6	15.25
318.15 K, x2 = 0.9017	1078.1	4.94
318.15 K, x2 = 0.95	1048.4	2.1
323.15 K, x2 = 0	1111.6	1365.5
323.15 K, x2 = 0.1001	1111.7	890.99
323.15 K, x2 = 0.2165	1111.7	502.11
323.15 K, x2 = 0.3182	1112	310.53
323.15 K, x2 = 0.409	1111.8	201.98
323.15 K, x2 = 0.5036	1111.1	120.29
323.15 K, x2 = 0.6044	1109.2	64.59
323.15 K, x2 = 0.7034	1106.7	32.53
323.15 K, x2 = 0.8113	1097.1	12.34
323.15 K, x2 = 0.9017	1074.5	4.2
323.15 K, x2 = 0.95	1045.6	1.86
328.15 K, x2 = 0	1108.1	867.05
328.15 K, x2 = 0.1001	1108.1	579.99
328.15 K, x2 = 0.2165	1108.2	341
328.15 K, x2 = 0.3182	1108.4	218.6
328.15 K, x2 = 0.409	1108.2	146.62
328.15 K, x2 = 0.5036	1107.4	88.71
328.15 K, x2 = 0.6044	1105.6	49.38
328.15 K, x2 = 0.7034	1102.9	25.68
328.15 K, x2 = 0.8113	1093.2	10.19
328.15 K, x2 = 0.9017	1070.6	3.62
328.15 K, x2 = 0.95	1042.5	1.65
